In brackets after ≈: the same amount, converted by molar mass. Read-outs that look alike come from different tables or passages of the source.
Experiments:
[1] = test system: E. coli J3272 Tet sens; assay: MIC, agar dilution; format: cell-based; conditions: Escherichia coli, J3272TETSENS, 18 h
[2] = test system: E. coli J3272 Tet C; assay: microbe, parasite or virus in culture; format: cell-based; conditions: Escherichia coli, J3272TETC, 18 h
[3] = test system: E. coli UBMS 90-5; assay: microbe, parasite or virus in culture; format: cell-based; conditions: Escherichia coli, UBMS905, 18 h, E. coli UBMS 90-5; read-out: MIC
[4] = test system: S. marcescens FPOR 8733; assay: MIC, agar dilution; format: cell-based; conditions: Serratia marcescens, FPOR8733, 18 h
[5] = test system: Ps. aeruginosa ATCC 27853; assay: MIC, agar dilution; format: cell-based; conditions: Pseudomonas aeruginosa, ATCC27853, 18 h
[6] = test system: Enterococcus 12201; assay: MIC, agar dilution; format: cell-based; conditions: Enterococcus, 12201, 18 h, Enterococcus 12201; read-out: MIC
[7] = test system: E. faecalis ATCC 29212; assay: MIC, agar dilution; format: cell-based; conditions: Enterococcus faecalis, ATCC29212, 18 h
[8] = test system: Staphylococcus aureus strain Smith (tetracycline sensitive); assay: Acute lethal infection in mice, S. aureus Smith; format: in vivo; conditions: Staphylococcus aureus, 168 h, mice, S. aureus Smith (Sens), 7 day survival, read-out: ED50
[9] = test system: Staphylococcus aureus, (methicillin-susceptible); assay: MIC range, recent clinical and veterinary isolates; format: cell-based; conditions: 18 h; Staphylococcus aureus (methicillin-susceptible), [15] isolates; read-out: MIC Range
[10] = test system: Staphylococcus Coagulase-negative, (methicillin-resistant); assay: MIC range, recent clinical and veterinary isolates; format: cell-based; conditions: 18 h, [16] isolates
[11] = test system: Staphylococcus Coagulase-negative, (methicillin-susceptible); assay: MIC range, recent clinical and veterinary isolates; format: cell-based; conditions: 18 h, [14] isolates
[12] = test system: Enterococcus faecalis; assay: MIC range, recent clinical and veterinary isolates; format: cell-based; conditions: 18 h, [10] isolates, read-out: MIC Range
[13] = test system: Enterococcus faecium; assay: MIC range, recent clinical and veterinary isolates; format: cell-based; conditions: 18 h, [10] isolates, read-out: MIC Range
[14] = test system: Enterococcus spp, (Vancomycin-resistant); assay: MIC range, recent clinical and veterinary isolates; format: cell-based; conditions: 18 h, [8] isolates
[15] = test system: Streptococcus pyogenes; assay: MIC range, recent clinical and veterinary isolates; format: cell-based; conditions: 18 h, [10] isolates, read-out: MIC Range
[16] = test system: Streptococcus agalactiae; assay: MIC range, recent clinical and veterinary isolates; format: cell-based; conditions: 18 h, [10] isolates, read-out: MIC Range
[17] = test system: Streptococcus pneumoniae; assay: MIC range, recent clinical and veterinary isolates; format: cell-based; conditions: 18 h, [10] isolates, read-out: MIC Range
[18] = test system: Listeria monocytogenes; assay: MIC range, recent clinical and veterinary isolates; format: cell-based; conditions: 18 h, [8] isolates
[19] = test system: Escherichia coli; assay: MIC range, recent clinical and veterinary isolates; format: cell-based; conditions: 18 h, [30] isolates, read-out: MIC Range
[20] = test system: Escherichia coli (Veterinary); assay: MIC range, recent clinical and veterinary isolates; format: cell-based; conditions: 18 h, [15] isolates
[21] = test system: Shigella spp.; assay: MIC range, recent clinical and veterinary isolates; format: cell-based; conditions: 18 h, [14] isolates
[22] = test system: Klebsiella pneumoniae; assay: MIC range, recent clinical and veterinary isolates; format: cell-based; conditions: 18 h, [10] isolates
[23] = test system: Klebsiella oxytoca; assay: MIC range, recent clinical and veterinary isolates; format: cell-based; conditions: 18 h, [10] isolates, read-out: MIC Range
[24] = test system: Citrobacter freundii; assay: MIC range, recent clinical and veterinary isolates; format: cell-based; conditions: [10] isolates
[25] = test system: Citrobacter diversus; assay: MIC range, recent clinical and veterinary isolates; format: cell-based; conditions: Citrobacter koseri, 18 h; Citrobacter diversus, [10] isolates; read-out: MIC Range
[26] = test system: Salmonella spp.; assay: MIC range, recent clinical and veterinary isolates; format: cell-based; conditions: 18 h, [11] isolates
[27] = test system: Serratia marcescens; assay: MIC range, recent clinical and veterinary isolates; format: cell-based; conditions: 18 h, read-out: MIC Range
[28] = test system: Enterobacter cloacae; assay: MIC range, recent clinical and veterinary isolates; format: cell-based; conditions: 18 h, [10] isolates, read-out: MIC Range
[29] = test system: Enterobacter aerogenes; assay: MIC range, recent clinical and veterinary isolates; format: cell-based; conditions: Klebsiella aerogenes, 18 h; Enterobacter aerogenes, [10] isolates; read-out: MIC Range
[30] = test system: Proteus mirabilis; assay: MIC range, recent clinical and veterinary isolates; format: cell-based; conditions: 18 h, [26] isolates, read-out: MIC Range
[31] = test system: Proteus vulgaris; assay: MIC range, recent clinical and veterinary isolates; format: cell-based; conditions: 18 h, read-out: MIC Range
[32] = test system: Morganella morganii; assay: MIC range, recent clinical and veterinary isolates; format: cell-based; conditions: 18 h, [16] isolates
[33] = test system: Pseudomonas aeruginosa; assay: MIC range, recent clinical and veterinary isolates; format: cell-based; conditions: 18 h, [10] isolates, read-out: MIC Range
[34] = test system: Xanthamonas maltophilia; assay: MIC range, recent clinical and veterinary isolates; format: cell-based; conditions: 18 h; Xanthamonas maltophilia, [10] isolates; read-out: MIC Range
[35] = test system: Moraxella catarrhalis; assay: MIC range, recent clinical and veterinary isolates; format: cell-based; conditions: 18 h, [18] isolates, read-out: MIC Range
[36] = test system: Neisseria gonorrhoeae; assay: MIC range, recent clinical and veterinary isolates; format: cell-based; conditions: 18 h, [14] isolates
[37] = test system: Haemophilus influenzae; assay: MIC range, recent clinical and veterinary isolates; format: cell-based; conditions: 18 h, [15] isolates
[38] = test system: Pasturella multocida (Veterinary); assay: MIC range, recent clinical and veterinary isolates; format: cell-based; conditions: 18 h, [17] isolates
[39] = test system: Bordetella bronchiseptica (Veterinary); assay: MIC range, recent clinical and veterinary isolates; format: cell-based; conditions: 18 h; Bordetella bronchiseptica (Veterinary), [10] isolates; read-out: MIC Range
[40] = test system: Bacteroides fragilis; assay: MIC range, recent clinical and veterinary isolates; format: cell-based; conditions: [11] isolates
[41] = test system: Bacteroides fragilis group; assay: MIC range, recent clinical and veterinary isolates; format: cell-based; conditions: 18 h; Bacteroides fragilis group, [10] isolates; read-out: MIC Range
[42] = test system: Bacteroides spp.; assay: MIC range, recent clinical and veterinary isolates; format: cell-based; conditions: 18 h; Bacteroides spp., [9] isolates; read-out: MIC Range
[43] = test system: Clostridium difficile; assay: MIC range, recent clinical and veterinary isolates; format: cell-based; conditions: Clostridium difficile, [12] isolates
[44] = test system: Anaerobic Gram(+)Cocci; assay: MIC range, recent clinical and veterinary isolates; format: cell-based; conditions: 18 h, read-out: MIC Range
[45] = test system: Escherichia coli UBMS 90-4 (Tet M); assay: Acute lethal infection in mice, E. coli UBMS 90-4; conditions: in Mus musculus, iv, 168 h

CN(C)c1ccc(O)c2c1C[C@H]1C[C@H]3[C@H](N(C)C)C(O)=C(C(N)=O)C(=O)[C@@]3(O)C(O)=C1C2=O [U, Minocycline, reference compound]
MIC [1]: 1 µg/mL (≈ 2.19 µM) | MIC [2]: 1 µg/mL (≈ 2.19 µM) | MIC [3]: 1 µg/mL (≈ 2.19 µM) | MIC [4]: 4 µg/mL (≈ 8.74 µM) | MIC [5]: 8 µg/mL (≈ 17.5 µM) | MIC [6]: 8 µg/mL (≈ 17.5 µM) | MIC [7]: 2 µg/mL (≈ 4.37 µM) | ED50 ([8]; iv, Intraveneous): 0.37 mg/kg | ED50 ([8]; po, Oral): 0.74 mg/kg | MIC [9]: 0.03 to 0.12 µg/mL (≈ 0.0656 to 0.262 µM) | MIC [10]: 0.03 to 1 µg/mL (≈ 0.0656 to 2.19 µM) | MIC [11]: 0.015 to 0.25 µg/mL (≈ 0.0328 to 0.546 µM) | MIC [12]: 0.03 to 16 µg/mL (≈ 0.0656 to 35 µM) | MIC [13]: 0.03 to 16 µg/mL (≈ 0.0656 to 35 µM) | MIC [14]: 0.03 to 16 µg/mL (≈ 0.0656 to 35 µM) | MIC [15]: 0.03 to 2 µg/mL (≈ 0.0656 to 4.37 µM) | MIC [16]: 0.12 to 16 µg/mL (≈ 0.262 to 35 µM) | MIC [17]: 0.06 to 0.5 µg/mL (≈ 0.131 to 1.09 µM) | MIC [18]: 0.015 to 0.03 µg/mL (≈ 0.0328 to 0.0656 µM) | MIC [19]: 0.25 to 32 µg/mL (≈ 0.546 to 69.9 µM) | MIC [20]: 1 to 16 µg/mL (≈ 2.19 to 35 µM) | MIC [21]: 0.25 to 8 µg/mL (≈ 0.546 to 17.5 µM) | MIC [22]: 0.5 to 8 µg/mL (≈ 1.09 to 17.5 µM) | MIC [23]: 0.5 to 4 µg/mL (≈ 1.09 to 8.74 µM) | MIC Range [24]: 0.03 to 32 µg/mL | MIC [25]: 0.25 to 4 µg/mL (≈ 0.546 to 8.74 µM) | MIC [26]: 0.5 to 16 µg/mL (≈ 1.09 to 35 µM) | MIC [27]: 1 to 8 µg/mL (≈ 2.19 to 17.5 µM) | MIC [28]: 0.25 to 4 µg/mL (≈ 0.546 to 8.74 µM) | MIC [29]: 0.5 to 1 µg/mL (≈ 1.09 to 2.19 µM) | MIC [30]: 1 to 32 µg/mL (≈ 2.19 to 69.9 µM) | MIC [31]: 0.5 to 16 µg/mL (≈ 1.09 to 35 µM) | MIC [32]: 0.25 to 32 µg/mL (≈ 0.546 to 69.9 µM) | MIC [33]: 1 to 16 µg/mL (≈ 2.19 to 35 µM) | MIC [34]: 0.12 to 1 µg/mL (≈ 0.262 to 2.19 µM) | MIC [35]: 0.03 to 0.12 µg/mL (≈ 0.0656 to 0.262 µM) | MIC [36]: 0.5 to 64 µg/mL (≈ 1.09 to 140 µM) | MIC [37]: 0.5 to 2 µg/mL (≈ 1.09 to 4.37 µM) | MIC [38]: 0.015 to 4 µg/mL (≈ 0.0328 to 8.74 µM) | MIC [39]: 0.06 to 0.12 µg/mL (≈ 0.131 to 0.262 µM) | MIC Range [40]: <0.008 to 16 µg/mL | MIC [41]: 0.008 to 4 µg/mL (≈ 0.0175 to 8.74 µM) | MIC [42]: 0.03 to 16 µg/mL (≈ 0.0656 to 35 µM) | MIC Range [43]: 0.015 to 16 µg/mL | MIC [44]: 0.05 to 8 µg/mL (≈ 0.109 to 17.5 µM) | ED50 [45]: > 32 mg/kg

From patent publication US5567692A, “9-[(substituted glycyl) amido)]-6-demethyl-6-deoxytetracyclines” (priority 1995, dated 1996)
